# “Also recorded” adds a separate entry of the source. Where two headings read alike, the source gives them in different places.
# Experiments:
# [1] = system: IL-6; test: IL-6 release from human ulcerative colitis colon mucosal biopsies (SEB-stimulated, multiplex ELISA); type: cell-based; details: about 18 hours, 50 ng/mL SEB
# [2] = system: TNF-α; test: Western blot of TNF-α protein in mucosal lysates, TNBS colitis mice; type: in vivo; details: 10 mg/kg twice daily for three days, listed as SPH-X
# Description: To assess the effect of SPH-X in this model at the molecular level, colitis was again induced in mice by TNBS instillation (three per treatment group), using ethanol as a control. Test animals were treated with either vehicle (PBS) or SPH-X (10 mg/kg i.p., twice daily) for three days following the TNBS injury and were then sacrificed. Colonic mucosa were isolated from each test animal and used to prepare mRNA. The mRNA was reverse transcribed to provide cDNAs.
# Finally, mucosal lysates from test animals treated as described for the cytokine analysis were prepared and analyzed by Western blot to see how SPH-X affects TNF-α protein levels in the colitis model.
# [3] = system: DNBS-induced colitis in Wistar rats; test: DNBS-induced colitis in Wistar rats; type: in vivo; details: day 1-7
# [4] = system: IL-17A; test: IL-17A release from human ulcerative colitis colon mucosal biopsies (multiplex ELISA); type: cell-based; details: some UC patients; 10-300 nM
# [5] = system: TNF-α; test: TNF-α release from human ulcerative colitis colon mucosal biopsies (multiplex ELISA); type: cell-based; details: some UC patients; 10-300 nM
# [6] = system: TNBS-induced colitis in C57BL/6 mice; test: TNBS-induced colitis in C57BL/6 mice, macroscopic and microscopic colon observations; type: in vivo; details: for histology of colon sections (H&E): day 3 after TNBS instillation (FIG. 5B)
# Description: Colitis was induced in C57BL/6 mice by instillation of trinitrobenzene sulfonic acid (TNBS) in the colons according to conventional methods. See Antoniou, et al., Ann. Medicine and Surgery, vol. 11, 9-15 (2016).
# FIGS. 5A-B show histological observations of colon sections from C57BL/6 mice. All animals were sacrificed on day 3 after the TNBS instillation to induce colitis as described above, and tissues are visualized by H&E (hematoxylin and eosin) staining.
# The second panel in FIG. 5B is tissue from a colon instilled with TNBS and treated with 10 mg/kg SPH-X twice daily, administered intraperitoneally.
# [7] = system: TNBS-induced colitis in RenTgMK mice; details: TNBS instillation, aliskiren by intraperitoneal injection; cited from earlier work
# [8] = Tekturna (aliskiren) label; cited from earlier work
# [9] = Bioavailability in rats; details: rat, in vivo, oral
# [10] = Bioavailability in monkeys; details: monkey, in vivo, oral
# [11] = UC Donor C, Formula (I) malate salt 10-300 nM, Birb 796 1 μM
compound,measurement,setting,value
"Cc1ccc(-n2nc(C(C)(C)C)cc2NC(=O)Nc2ccc(OCCN3CCOCC3)c3ccccc23)cc1 [Birb 796, reference compound]",IL-6 production,[1]; [11],reduction of IL-6
COC(=O)NCCCn1nc([C@@H](C)N(C(=O)C2CNCCO2)C2CC2)c2ccc(C)nc21.O=C(O)C[C@H](O)C(=O)O (stereo partly drawn) [Formula I malate salt],TNF-α protein level (Western blot),[2],no TNF-α protein was seen; also recorded: reduces or stops formation of TNF-α
same,IL-6 production,[1]; [11],does not show reduction in IL-6
same,IL-6 production,"[1]; UC Donors A and B, 10-300 nM",significant dose-related decreases
same,colon length,[3]; 30 mg/kg q.d. p.o.,significantly increased colon length
same,release of IL-17A,[4],dose-related reductions
same,release of tumor necrosis factor alpha (TNF-α),[5],dose-related reductions
same,histology of colon sections (H&E),"[6]; 5 mg/kg BID, listed as SPH-X",substantially prevents or treats any injury caused by TNBS instillation; also recorded: treats or prevents such damage
same,interior of colons dissected longitudinally (bleeding at the distal ends),[6]; 10 mg/kg intraperitoneally after TNBS instillation (FIG. 4B),do not show such damage
same,histology of colon sections (H&E),"[6]; 10 mg/kg twice daily intraperitoneally, listed as SPH-X",substantially protects the colon from injury caused by TNBS; also recorded: treats or prevents such damage
same,gross morphology of colons,"[6]; 20 mg/kg BID intraperitoneal, 7 days after TNBS instillation (FIG. 4A), listed as SPH-X",appear more normal; also recorded: substantially reverses damage caused by TNBS
COCCCOc1cc(C[C@@H](C[C@H](N)[C@@H](O)C[C@H](C(=O)NCC(C)(C)C(N)=O)C(C)C)C(C)C)ccc1OC [aliskiren],effect on induced colitis,[7],ameliorated this induced colitis
same,bioavailability,[8],2.5%
C[C@@H]1CCN(C(=O)CC#N)C[C@@H]1N(C)c1ncnc2[nH]ccc12 [Tofacitinib],CW/BW ratio improved by,[3]; 30 mg/kg BID p.o.,9%
same,CW/CL ratio improved by,[3]; 30 mg/kg BID p.o.,37%
same,CW/CL/BW ratio improved by,[3]; 30 mg/kg BID p.o.,14%
COC(=O)NCCCn1nc([C@@H](C)N(C(=O)C2CNCCO2)C2CC2)c2ccc(C)nc21 (stereo partly drawn) [Formula (I)],bioavailability,[9],11.5 to 24.5%
same,bioavailability,[10],3.3 to 11.3%

# Source: patent US20230398123A1, “METHODS TO TREAT INFLAMMATORY BOWEL DISEASE” (SHANGHAI PHARMACEUTICALS HOLDING CO., LTD., priority 2021, published 2023)
